Data from paper PMC2974784 (Pharmacological research : the official journal of the …, 2010).
Counter-ions that a name gives are not always drawn. Like-named read-outs stand apart in the source and are kept apart here. One block for each compound: values may come before it.

What was measured:
Type in all cases: cell-based
[1] = target: T1, P2Y1 receptor (Rattus norvegicus, UniProt P49651); assay: agonist-induced intracellular calcium mobilization in RBL-2H3 cells
[2] = target: T1, P2Y1 receptor
[3] = target: T2, P2Y13 receptor (Rattus norvegicus, UniProt Q6GUG4)
T2 sequence (Q6GUG4 1-336): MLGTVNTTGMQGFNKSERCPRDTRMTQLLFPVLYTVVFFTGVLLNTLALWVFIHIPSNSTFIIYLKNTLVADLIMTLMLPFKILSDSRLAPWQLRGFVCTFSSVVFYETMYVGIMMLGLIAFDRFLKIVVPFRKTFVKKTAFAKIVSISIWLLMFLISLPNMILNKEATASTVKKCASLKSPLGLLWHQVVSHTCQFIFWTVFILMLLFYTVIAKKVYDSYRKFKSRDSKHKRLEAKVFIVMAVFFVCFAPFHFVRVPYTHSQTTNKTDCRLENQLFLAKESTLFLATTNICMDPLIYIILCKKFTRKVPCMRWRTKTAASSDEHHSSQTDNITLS

[4] = target: T1, P2Y1 receptor; remark: listed apart in the source

T1 sequence (P49651 whole entry): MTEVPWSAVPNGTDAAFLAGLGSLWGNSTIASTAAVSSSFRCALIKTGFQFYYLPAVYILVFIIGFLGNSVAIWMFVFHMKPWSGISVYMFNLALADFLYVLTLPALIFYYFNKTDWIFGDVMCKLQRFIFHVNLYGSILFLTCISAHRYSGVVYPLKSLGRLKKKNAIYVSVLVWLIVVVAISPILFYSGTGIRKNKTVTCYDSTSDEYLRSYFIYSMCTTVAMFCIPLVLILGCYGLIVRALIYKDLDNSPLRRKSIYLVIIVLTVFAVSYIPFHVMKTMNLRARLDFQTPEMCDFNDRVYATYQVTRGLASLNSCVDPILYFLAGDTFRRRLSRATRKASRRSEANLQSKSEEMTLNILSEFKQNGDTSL

EC50 [1]: 0.0378 ± 0.0113 µM
Compound: CSc1nc(N)c2ncn([C@@H]3O[C@H](COP(=O)(O)OP(=O)(O)O)[C@@H](O)[C@H]3O)c2n1 [2-MeSADP]

Compound: Nc1ncnc2c1ncn2[C@@H]1O[C@H](COP(=O)(O)OP(=O)(O)O)[C@@H](O)[C@H]1O [ADP]
EC50 [2]: 0.278 ± 0.042 µM
EC50 [3]: 4.7 ± 0.8 µM

EC50 [4]: 0.0045 ± 0.0008 µM
Compound: CSc1nc(N)c2ncn([C@H]3[C@H](O)[C@H](O)[C@]4(COP(=O)(O)OP(=O)(O)O)C[C@H]34)c2n1 [MRS2365, [[(1R,2R,3S,4R,5S)-4-[6-amino-2-(methylthio)-9H-purin-9-yl]-2,3-dihydroxybicyclo[3.1.0]hex-1-yl]methyl]diphosphoric acid mono ester trisodium salt]
